The record followed here is paper PMC3284191 (Journal of Agricultural and Food Chemistry, 2012).

The experiment deals with β-galactosidase LacZ from L. bulgaricus (nontagged) (Lactobacillus delbrueckii, UniProt Q1G9Z4). Briefly: inhibition of oNPG hydrolysis, nonlinear regression. The experiment is classed as biochemical. The settings on record: read-out: nontagged LacZ; substrate oNPG; 50 mM sodium phosphate, pH 6.5, 30 °C; competitive.
Sequence of β-galactosidase LacZ from L. bulgaricus (nontagged) (Q1G9Z4 2-1008): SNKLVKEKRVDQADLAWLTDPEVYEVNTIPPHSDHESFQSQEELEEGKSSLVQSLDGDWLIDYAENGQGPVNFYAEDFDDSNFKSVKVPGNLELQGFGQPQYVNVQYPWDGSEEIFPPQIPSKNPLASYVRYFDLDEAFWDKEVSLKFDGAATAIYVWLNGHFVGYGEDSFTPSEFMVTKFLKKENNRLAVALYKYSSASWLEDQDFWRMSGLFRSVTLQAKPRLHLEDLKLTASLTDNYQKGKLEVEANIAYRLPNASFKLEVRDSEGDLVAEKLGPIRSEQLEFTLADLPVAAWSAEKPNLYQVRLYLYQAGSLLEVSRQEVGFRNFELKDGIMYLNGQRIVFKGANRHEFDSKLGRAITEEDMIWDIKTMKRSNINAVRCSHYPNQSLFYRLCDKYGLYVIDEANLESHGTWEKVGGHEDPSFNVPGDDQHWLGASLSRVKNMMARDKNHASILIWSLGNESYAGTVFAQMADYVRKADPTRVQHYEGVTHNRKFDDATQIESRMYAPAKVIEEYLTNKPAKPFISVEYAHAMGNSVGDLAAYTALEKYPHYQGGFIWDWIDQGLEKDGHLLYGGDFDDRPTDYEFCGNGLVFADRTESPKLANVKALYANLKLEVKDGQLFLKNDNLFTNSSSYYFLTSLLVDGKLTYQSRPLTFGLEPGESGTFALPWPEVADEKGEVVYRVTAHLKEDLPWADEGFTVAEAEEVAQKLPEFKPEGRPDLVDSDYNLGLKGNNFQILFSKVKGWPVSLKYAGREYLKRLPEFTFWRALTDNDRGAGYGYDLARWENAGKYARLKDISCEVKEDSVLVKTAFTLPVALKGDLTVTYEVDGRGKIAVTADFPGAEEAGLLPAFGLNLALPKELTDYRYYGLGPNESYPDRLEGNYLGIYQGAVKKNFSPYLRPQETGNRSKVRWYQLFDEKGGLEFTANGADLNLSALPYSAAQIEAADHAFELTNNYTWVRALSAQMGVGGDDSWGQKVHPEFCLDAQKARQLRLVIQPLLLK

In the case of `OC[C@H]1OC(O)[C@H](O)[C@@H](O)[C@H]1O` (stereo partly drawn) [D-galactose], the Ki was determined as 9.52 ± 1.54 mM.
